The subject of one data set is Eimeria tenella. Kind of data set: chick feeding experiment, Eimeria tenella challenge. It counts as in vivo, chickens. To be noted: 100 ppm in diet; Na salt. The text has this:
A feeding experiment in young chickens confirms that the deoxynarasin antibiotics have anticoccidial activity in vivo.
^1 Two cages of four chickens each per treatment.
^2 Maximum possible score = 4.00.

A further data set is described as follows: stability in alcohols. It counts as physicochemical. To be noted: free acid; e.g. methanol, room temperature, four hours. As to the method:
For example, 20-deoxynarasin acid (435.1 mg) was dissolved in methanol (40 ml) and allowed to stand at room temperature for four hours. The solution was then evaporated to dryness under vacuum; the residue was redissolved in dioxane and lyophilized to give 417.8 mg of 20-deoxy-epi-17-narasin acid.

A further data set can be described thus: solubility. Format: physicochemical.

Two molecules from patent publication US4204039A, “Process for producing deoxynarasin antibiotics” (Eli Lilly and Company, priority 1978, dated 1980) can be followed below.

Structures can show the parent of a compound that is named as a salt.

`CCC(C(=O)O)C1OC(C(C)C(O)C(C)C(=O)C(CC)C2OC3(C=CCC4(CCC(C)(C5CCC(O)(CC)C(C)O5)O4)O3)C(C)CC2C)C(C)CC1C` (stereo not shown) [20-deoxynarasin (Na salt), 20-deoxynarasin]: in the data set with Eimeria tenella, the “mortality (in words)” value is “prevented mortality”, the “number of lesions (in words)” value is “decreased the number of lesions” and the “weight gains (in words)” value is on record as “improved weight gains”.

For the molecule `CCC(C(=O)O)C1OC(C(C)C(O)C(C)C(=O)C(CC)C2OC3(C=CCC4(CCC(C)(C5CCC(O)(CC)C(C)O5)O4)O3)C(C)CC2C)C(C)CC1C` (stereo not shown) [20-deoxynarasin], the stability in alcohols result in the data set “stability in alcohols” is “unstable in alcohols, converting to 20-deoxy-epi-17-narasin free acid”. Moreover, the solubility entry in the data set “solubility” (methanol, ethanol, dimethylformamide, dimethyl sulfoxide, ethyl acetate, chloroform, acetone and benzene) is “soluble”; in the data set “solubility” (nonpolar organic solvents such as hexane), “only slightly soluble”; in the data set “solubility” (water), “insoluble”.
